These results are taken from patent US8193191B2, “Urotensin II receptor antagonists” (Janssen Pharmaceutica N.V., priority 2006, dated 2012).

Structures are written as SMILES.

Assay [1] deals with T1, rat GPR14 (U-II receptor) (Rattus norvegicus, UniProt P49684).
T1 construct: expressed in transfected cells
T1 sequence (P49684 1-386): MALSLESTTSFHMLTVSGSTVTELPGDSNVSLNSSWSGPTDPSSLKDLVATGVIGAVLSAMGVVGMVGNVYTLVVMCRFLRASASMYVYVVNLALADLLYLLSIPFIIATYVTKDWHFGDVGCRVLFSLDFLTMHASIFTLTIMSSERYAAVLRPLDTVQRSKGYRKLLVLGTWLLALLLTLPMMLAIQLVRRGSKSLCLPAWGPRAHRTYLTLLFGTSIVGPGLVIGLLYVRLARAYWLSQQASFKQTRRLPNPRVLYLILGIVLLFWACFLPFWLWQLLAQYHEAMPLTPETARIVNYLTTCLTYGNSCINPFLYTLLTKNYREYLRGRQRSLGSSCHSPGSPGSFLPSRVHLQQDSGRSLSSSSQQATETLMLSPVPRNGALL
Briefly: Rat UII Calcium Mobilization FLIPR Assay. The assay is classed as cell-based. The conditions noted are these: average value for the compound tested; read-out: Rat UII FLIPR Average IC50. Summed up: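 Fluorescent calcium signals were recorded at room temperature (23° C) by FLIPR. Stable rat U-II receptor CHO lines had been dye-loaded for 1 h at 37° C in pH 7.4 HBSS containing 20 mM HEPES, 0.1% BSA and 2.5 mM probenecid.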
Background: A change in cytosolic calcium serves as a functional read-out for many receptors and channels.

For assay [2], the target named is T2, Human UII receptor, 6D9 human rhabdomyosarcoma cells (Homo sapiens, UniProt Q9UKP6).
T2 construct: 6D9: isolated by dilution subcloning of RMS13 cells, ATCC® Number: CRL-2061; host or cells: 6D9 human rhabdomyosarcoma cells (subclone of RMS13)
T2 sequence (Q9UKP6 1-389): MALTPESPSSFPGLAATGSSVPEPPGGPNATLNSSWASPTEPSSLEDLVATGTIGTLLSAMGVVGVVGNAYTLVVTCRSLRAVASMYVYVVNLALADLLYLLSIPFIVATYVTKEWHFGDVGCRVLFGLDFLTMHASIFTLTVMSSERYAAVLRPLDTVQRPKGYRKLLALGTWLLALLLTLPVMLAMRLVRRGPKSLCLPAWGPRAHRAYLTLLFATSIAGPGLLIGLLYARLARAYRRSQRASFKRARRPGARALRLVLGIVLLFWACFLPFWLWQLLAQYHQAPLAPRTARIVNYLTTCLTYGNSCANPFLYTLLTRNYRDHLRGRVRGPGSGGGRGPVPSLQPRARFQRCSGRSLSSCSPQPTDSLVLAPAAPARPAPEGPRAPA
Briefly: Human UII Calcium Mobilization Assay. The assay is classed as cell-based. The following applies: average value, FLIPR TETRA, read-out: Human UII Ca^+ Mobilization Average IC50. The method, boiled down:
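FLIPR calcium responses were recorded for 4 minutes after room-temperature addition of test antagonist and U-II, in dye-loaded human 6D9 cells (37° C, 45 min; HBSS/HEPES with probenecid 1.25 mM). Compounds serially diluted in HBSS/HEPES, up to 0.1% DMSO; curves gave IC50 and EC50.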

The target in assay [3] is T3, endogenous human UII receptor (Homo sapiens, UniProt Q9UKP6).
T3 sequence (Q9UKP6 1-389): T2 sequence (Q9UKP6 1-389)
The assay is described as follows: Human Radioligand Binding Assay ((^125I)-U-II binding to human skeletal muscle myoblasts).

Take `COc1ccc([C@@H](CCCNC(=O)C(C)C)N2C(=O)c3cccc(N4CCN([C@H](C)c5ccccc5)CC4)c3C2=O)cc1OC` [Cpd 174, (R)-N-(4-(3,4-dimethoxy-phenyl)-4-{1,3-dioxo-4-[4-(1R)-(1-phenyl-ethyl)-piperazin-1-yl]-1,3-dihydro-isoindol-2-yl}-butyl)-isobutyramide]: the IC50 in assay [1] was 11 nM; in assay [2], 620 nM. In addition, the Ki in assay [3] turned out to be 19 nM.
For `COCC(=O)NCCC[C@H](c1ccc(OC)c(OC)c1)N1C(=O)c2cccc(N3CCN([C@H](C)c4ccccc4)CC3)c2C1=O` [Cpd 175, (R)-N-(4-(3,4-dimethoxy-phenyl)-4-{1,3-dioxo-4-[4-(1R)-(1-phenyl-ethyl)-piperazin-1-yl]-1,3-dihydro-isoindol-2-yl}-butyl)-2-methoxy-acetamide] the same measures were 6.1 nM, 410 nM and 26 nM.
For `CCCC(=O)NCCC[C@H](c1ccc(OC)c(OC)c1)N1C(=O)c2cccc(N3CCN([C@H](C)c4ccccc4)CC3)c2C1=O` [Cpd 176, (R)-N-(4-(3,4-dimethoxy-phenyl)-4-{1,3-dioxo-4-[4-(1R)-(1-phenyl-ethyl)-piperazin-1-yl]-1,3-dihydro-isoindol-2-yl}-butyl)-butyramide] the same measures were 13 nM, 850 nM and 24 nM.
The matching figures for `COCCC(=O)NCCC[C@H](c1ccc(OC)c(OC)c1)N1C(=O)c2cccc(N3CCN([C@H](C)c4ccccc4)CC3)c2C1=O` [Cpd 177, (R)-N-(4-(3,4-dimethoxy-phenyl)-4-{1,3-dioxo-4-[4-(1R)-(1-phenyl-ethyl)-piperazin-1-yl]-1,3-dihydro-isoindol-2-yl}-butyl)-3-methoxy-propionamide]: 7.1 nM, 1100 nM and 93 nM.
As for `COc1ccc([C@@H](CCCNC(=O)C2CCC2)N2C(=O)c3cccc(N4CCN([C@H](C)c5ccccc5)CC4)c3C2=O)cc1OC` [Cpd 178, (R)-cyclobutanecarboxylic acid (4-(3,4-dimethoxy-phenyl)-4-{1,3-dioxo-4-[4-(1R)-(1-phenyl-ethyl)-piperazin-1-yl]-1,3-dihydro-isoindol-2-yl}-butyl)-amide], the 50% inhibitory concentration (IC50) in assay [1] is 13 nM; in assay [2], 560 nM. The affinity in assay [3] corresponds to a Ki of 22 nM.
For `COc1ccc([C@@H](CCCNC(=O)C2CCCC2)N2C(=O)c3cccc(N4CCN([C@H](C)c5ccccc5)CC4)c3C2=O)cc1OC` [Cpd 179, (R)-cyclopentanecarboxylic acid (4-(3,4-dimethoxy-phenyl)-4-{1,3-dioxo-4-[4-(1R)-(1-phenyl-ethyl)-piperazin-1-yl]-1,3-dihydro-isoindol-2-yl}-butyl)-amide] the same measures were 24 nM, 1100 nM and 43 nM.
The matching figures for `CCC(=O)NCCC[C@H](c1ccc(OC)c(OC)c1)N1C(=O)c2cccc(N3CCN([C@H](C)c4ccccc4)CC3)c2C1=O` [Cpd 180, (R)-N-(4-(3,4-dimethoxy-phenyl)-4-{1,3-dioxo-4-[4-(1R)-(1-phenyl-ethyl)-piperazin-1-yl]-1,3-dihydro-isoindol-2-yl}-butyl)-propionamide]: 8.8 nM, 570 nM and 23 nM.
As for `COc1ccc([C@@H](CCCNC(=O)CC(C)C)N2C(=O)c3cccc(N4CCN([C@H](C)c5ccccc5)CC4)c3C2=O)cc1OC` [Cpd 181, (R)-N-(4-(3,4-dimethoxy-phenyl)-4-{1,3-dioxo-4-[4-(1R)-(1-phenyl-ethyl)-piperazin-1-yl]-1,3-dihydro-isoindol-2-yl}-butyl)-3-methyl-butyramide], the concentration for half-maximal inhibition (IC50) worked out at 12 nM in assay [1] and 970 nM in assay [2]. Further, the inhibitory constant (Ki) in assay [3] is 41 nM.
For `CCOCC(=O)NCCC[C@H](c1ccc(OC)c(OC)c1)N1C(=O)c2cccc(N3CCN([C@H](C)c4ccccc4)CC3)c2C1=O` [Cpd 182, (R)-N-(4-(3,4-dimethoxy-phenyl)-4-{1,3-dioxo-4-[4-(1R)-(1-phenyl-ethyl)-piperazin-1-yl]-1,3-dihydro-isoindol-2-yl}-butyl)-2-ethoxy-acetamide] the same measures were 9.6 nM, 580 nM and 40 nM.
In the case of `COc1ccc([C@@H](CCCNC(=O)c2cnn(C)c2Cl)N2C(=O)c3cccc(N4CCN([C@H](C)c5ccccc5)CC4)c3C2=O)cc1OC` [Cpd 183, (R)-5-chloro-1-methyl-1H-pyrazole-4-carboxylic acid (4-(3,4-dimethoxy-phenyl)-4-{1,3-dioxo-4-[4-(1R)-(1-phenyl-ethyl)-piperazin-1-yl]-1,3-dihydro-isoindol-2-yl}-butyl)-amide], the IC50 is 19 nM in assay [1] and 1300 nM in assay [2]. The same compound had an inhibition constant (Ki) in assay [3] of 55 nM.
For `COc1ccc([C@@H](CCCNC(=O)c2c(C)nn(C)c2C)N2C(=O)c3cccc(N4CCN([C@H](C)c5ccccc5)CC4)c3C2=O)cc1OC` [Cpd 184, (R)-1,3,5-trimethyl-1H-pyrazole-4-carboxylic acid (4-(3,4-dimethoxy-phenyl)-4-{1,3-dioxo-4-[4-(1R)-(1-phenyl-ethyl)-piperazin-1-yl]-1,3-dihydro-isoindol-2-yl}-butyl)-amide] the same measures were 15 nM, 1100 nM and 56 nM.
The matching figures for `COc1ccc([C@@H](CCCNC(=O)C(C)(C)C)N2C(=O)c3cccc(N4CCN([C@H](C)c5ccccc5)CC4)c3C2=O)cc1OC` [Cpd 185, (R)-N-(4-(3,4-dimethoxy-phenyl)-4-{1,3-dioxo-4-[4-(1R)-(1-phenyl-ethyl)-piperazin-1-yl]-1,3-dihydro-isoindol-2-yl}-butyl)-2,2-dimethyl-propionamide]: 9.8 nM, 1000 nM and 23 nM.
For the compound `COc1ccc([C@@H](CCCNC(=O)c2ccoc2)N2C(=O)c3cccc(N4CCN([C@H](C)c5ccccc5)CC4)c3C2=O)cc1OC` [Cpd 186, (R)-furan-3-carboxylic acid (4-(3,4-dimethoxy-phenyl)-4-{1,3-dioxo-4-[4-(1R)-(1-phenyl-ethyl)-piperazin-1-yl]-1,3-dihydro-isoindol-2-yl}-butyl)-amide], the IC50 in assay [1] was 13 nM; in assay [2], 820 nM. Also, affinity in assay [3] was put at a Ki of 37 nM.
With `COc1ccc([C@@H](CCCNC(=O)c2ccno2)N2C(=O)c3cccc(N4CCN([C@H](C)c5ccccc5)CC4)c3C2=O)cc1OC` [Cpd 187, (R)-isoxazole-5-carboxylic acid (4-(3,4-dimethoxy-phenyl)-4-{1,3-dioxo-4-[4-(1R)-(1-phenyl-ethyl)-piperazin-1-yl]-1,3-dihydro-isoindol-2-yl}-butyl)-amide], the figures for the IC50 in assay [1] and in assay [2] were 11 nM and 910 nM, respectively. Further, the inhibitory constant (Ki) in assay [3] stood at 50 nM.
For `COc1ccc([C@@H](CCCNC(=O)c2cc(C)[nH]c2C)N2C(=O)c3cccc(N4CCN([C@H](C)c5ccccc5)CC4)c3C2=O)cc1OC` [Cpd 188, (R)-2,5-dimethyl-1H-pyrrole-3-carboxylic acid (4-(3,4-dimethoxy-phenyl)-4-{1,3-dioxo-4-[4-(1R)-(1-phenyl-ethyl)-piperazin-1-yl]-1,3-dihydro-isoindol-2-yl}-butyl)-amide] the same measures were 20 nM, 1300 nM and 120 nM.
In the case of `CCOCCC(=O)NCCC[C@H](c1ccc(OC)c(OC)c1)N1C(=O)c2cccc(N3CCN([C@H](C)c4ccccc4)CC3)c2C1=O` [Cpd 189, (R)-N-(4-(3,4-dimethoxy-phenyl)-4-{1,3-dioxo-4-[4-(1R)-(1-phenyl-ethyl)-piperazin-1-yl]-1,3-dihydro-isoindol-2-yl}-butyl)-3-ethoxy-propionamide], the IC50 amounted to 8.6 nM in assay [1] and 1100 nM in assay [2]. For the same compound, in assay [3], the affinity corresponds to a Ki of 57 nM.
The matching figures for `COc1ccc([C@@H](CCCNC(=O)c2cn[nH]c2)N2C(=O)c3cccc(N4CCN([C@H](C)c5ccccc5)CC4)c3C2=O)cc1OC` [Cpd 190, (R)-1H-pyrazole-4-carboxylic acid (4-(3,4-dimethoxy-phenyl)-4-{1,3-dioxo-4-[4-(1R)-(1-phenyl-ethyl)-piperazin-1-yl]-1,3-dihydro-isoindol-2-yl}-butyl)-amide]: 6.1 nM, 290 nM and 20 nM.

One may read the IC50 as the concentration that gives 50% inhibition. The Ki is a dissociation constant, usually derived from enzyme kinetics or from competition with a known ligand. A low value points to higher affinity.
